{
  "source": "patent US20240307386A1",
  "about": "(priority 2018, published 2024)",
  "key": {"5-HT2 receptor": {"tested_on": "5-HT2 receptor", "assay": "DOI-induced head twitch model in mice", "format": "in vivo", "details": "p.o., 0.5 hr before s.c. DOI"}, "[1]": {"tested_on": "NMDA receptor currents in mPFC neurons", "assay": "NMDA-induced currents in rat mPFC slices, whole-cell patch clamp", "format": "cell-based", "excerpt": "(§1) Combined administration of the antipsychotic, olanzapine, and the SSRI, fluoxetine, similarly induces rapid antidepressant activity in humans and animals (Tohen et al., 2010); likewise, combined application of olanzapine and fluoxetine is required to induce AMPA receptor currents in vitro."}, "[2]": {"tested_on": "AMPA receptor currents in mPFC neurons", "assay": "AMPA-induced currents in rat mPFC slices, whole-cell patch clamp", "format": "cell-based", "excerpt": "as §1"}, "AKT (at Threonine 308)": {"tested_on": "AKT (at Threonine 308)", "assay": "Phosphorylation of mTOR pathway proteins in rat PFC: AKT", "format": "in vivo", "details": "1 hour and 24 hours after one i.p. injection; ketamine 30 mg/kg, Formula A 3 mg/kg"}, "mTOR (at Serine 2448)": {"tested_on": "mTOR (at Serine 2448)", "assay": "Phosphorylation of mTOR pathway proteins in rat PFC: mTOR", "format": "in vivo", "details": "one i.p. injection; ketamine 30 mg/kg, Formula A 3 mg/kg"}, "[3]": {"tested_on": "P70s6 kinase (at Threonine 389)", "assay": "Phosphorylation of mTOR pathway proteins in rat PFC: P70s6 kinase", "format": "in vivo", "details": "over 24 hours after one i.p. injection; ketamine 30 mg/kg, Formula A 3 mg/kg"}, "mTORC1 signaling pathway": {"tested_on": "mTORC1 signaling pathway", "assay": "mTORC1 signaling pathway in mPFC of adult rats, dose range study", "format": "in vivo, rat", "details": "Formula A 1 to 8 mg/kg i.p.; ketamine 30 mg/kg; 60 min, 90 min or 24 hours"}, "[4]": {"assay": "Clinical studies in patients with acute exacerbated schizophrenia", "format": "in vivo, human", "details": "60 mg P.O. once daily, up to 28 days", "excerpt": "Social avoidance can be a critical and debilitating symptom in patients suffering from anxiety disorders, especially social anxiety disorder, as well as in patients suffering from traumatic anxiety disorders. Social avoidance is often one of the key determinants of whether a person with a severe anxiety disorder is capable of maintaining familial relationships or employment relationships. […] Negative symptoms of schizophrenia can be divided into two categories: emotional experience (e.g., emotional withdrawal, passive social withdrawal, active social avoidance) and emotional expression (e.g., blunted effect, poor rapport, lack of spontancity, and motor retardation). […] These are the symptoms that are most highly correlated with interpersonal functioning."}, "5-HT2A": {"target": "5-HT2A (Homo sapiens (Human), UniProt P28223)"}, "D2": {"target": "D2 (Homo sapiens (Human), UniProt P14416)"}, "[5]": {"details": "40-minute infusion, total dose 0.5 mg/kg; after 24 hours; cited from earlier work"}, "[6]": {"details": "bath applied 3-100 nM, 5 min later"}},
  "data": [
    {"smiles": "O=C1CN2c3c(cccc3[C@@H]3CN(CCCOc4ccc(F)cc4)CC[C@@H]32)N1", "note": "[Example 1, (6bR,10aS)-8-(3-(4-fluorophenoxy)propyl)-6b,7,8,9,10,10a-hexahydro-1H-pyrido[3′,4′:4,5]pyrrolo[1,2,3-de]quinoxalin-2(3H)-one]", "values": [
      {"measurement": "EC50 for reducing DOI-induced head twitches", "setting": "5-HT2 receptor", "result": 0.44, "unit": "mg/kg"}
    ]},
    {"smiles": "CN1CCN2c3c(cccc31)[C@@H]1CN(CCCC(=O)c3ccc(F)cc3)CC[C@@H]12", "note": "[Formula A, lumateperone]", "values": [
      {"measurement": "NMDA-induced currents compared to control", "setting": "[1]; 30 nM", "result": "~150", "unit": "%"},
      {"measurement": "NMDA currents", "setting": "[1]; [6]", "result": "enhanced"},
      {"measurement": "AMPA-induced currents compared to control", "setting": "[2]; 30 nM, alone and with SCH 23390 (1 μM)", "result": "Substantially the same results"},
      {"measurement": "AMPA currents", "setting": "[2]; [6]", "result": "enhanced"},
      {"measurement": "increase in phosphorylation of AKT at thr308", "setting": "AKT (at Threonine 308)", "result": "~50", "unit": "%"},
      {"measurement": "change in mTOR phosphorylation", "setting": "mTOR (at Serine 2448)", "result": "Neither ketamine nor the Compound of Formula A results in a change"},
      {"measurement": "p70s6K phosphorylation", "setting": "[3]", "result": "progressively increases"},
      {"measurement": "activation of mTORC1 signaling pathway in mPFC (p-Akt thr308, p-P70S6K)", "setting": "mTORC1 signaling pathway", "result": "rapidly activates the mTORC1 signaling pathway"},
      {"measurement": "symptoms of emotional experience compared to placebo", "setting": "[4]", "result": "significant and unexpected improvement"},
      {"measurement": "Ki", "setting": "5-HT2A", "result": 0.01, "unit": "µM"},
      {"measurement": "Ki", "setting": "D2", "result": 0.049, "unit": "µM"}
    ]},
    {"smiles": "CNCCC(Oc1ccc(C(F)(F)F)cc1)c1ccccc1", "note": "(stereo not shown) [fluoxetine]", "values": [
      {"measurement": "activity at 0.1 µM", "setting": "[2]; Rattus norvegicus, Neuron, 100 nM fluoxetine, read-out: AMPA-induced current, % of control", "result": "~90", "unit": "%"}
    ]},
    {"smiles": "CNC1(c2ccccc2Cl)CCCCC1=O", "note": "(stereo not shown) [ketamine]", "values": [
      {"measurement": "increase in phosphorylation of AKT at thr308", "setting": "AKT (at Threonine 308)", "result": "~50", "unit": "%"},
      {"measurement": "change in mTOR phosphorylation", "setting": "mTOR (at Serine 2448)", "result": "Neither ketamine nor the Compound of Formula A results in a change"},
      {"measurement": "p70s6K phosphorylation", "setting": "[3]", "result": "transiently increase"},
      {"measurement": "activation of mTORC1 signaling pathway in mPFC (p-Akt thr308, p-P70S6K)", "setting": "mTORC1 signaling pathway", "result": "rapidly activates the mTORC1 signaling pathway"},
      {"measurement": "ratings on the Hamilton Depression Rating Scale (HDRS) compared to placebo", "setting": "[5]", "result": "significantly improved"}
    ]},
    {"smiles": "Cc1cc2c(s1)Nc1ccccc1N=C2N1CCN(C)CC1", "note": "[olanzapine]", "values": [
      {"measurement": "activity at 0.003 µM", "setting": "[2]; Rattus norvegicus, Neuron, 3 nM olanzapine alone, read-out: AMPA-induced current, % of control", "result": "~100", "unit": "%"}
    ]}
  ]
}
